Data from patent publication US20240279221A1, “HETEROCYCLIC COMPOUNDS AND METHODS OF USE” (Schrödinger, Inc., priority 2021, published 2024).
pIC50, pKd: −log10 of the molar value.

What was measured:
human SOS1 = human SOS1 (Homo sapiens (Human), UniProt Q07889); assay: Surface Plasmon Resonance (SPR) SOS1 Binding Assay; settings: biotinylated SOS1 (res. 564-1049), 25° C., kinetic or steady state fit, read-out: KD for hSOS1
Procedure: Binding to SOS1 was measured using a SPR assay with purified recombinant human SOS1 substrate (res. 564-1049 with N-terminal Avi tag; purified and biotinylated based on Hillig, et al., Proc Natl Acad Sci USA (2019); 116(7):2551-2560). SPR measurements were performed on a Biacore 8K SPR instrument (GE Healthcare, Sweden). Assays were performed at 25° C. using Series S SA sensor chips pre-coated with streptavidin (GE Healthcare, Cat. BR100531). Biotinylated SOS1 diluted in sample buffer (20 mM Tris HCl, 150 mM NaCl, 1 mM DTT, 0.05% TWEEN 20, 1 mM MgCl2, pH 8.0) was captured to one flow cell of the chip to about 3,000 resonance units (RU) using sample buffer supplemented with 5% DMSO as a running buffer. Serial dilutions of the assayed compounds in the running buffer at 100, 50 or 0.5 μM were injected for 60 s at a flow rate of 30 μL/min and association phases were recorded. Dissociation of the samples was monitored for 600 s. Data processing was performed using Biacore Insight Software (Biacore, GE Healthcare). Sensorgrams recorded on a SA flow cell without captured protein were subtracted from sensorgrams recorded on the SOS1 surface. Blank injections of running buffer were used for double referencing and solvent correction was applied to all sample sensorgrams to correct for buffer mismatches. KDs were estimated using a kinetic or steady state, where applicable, fitting model describing a reversible equilibrium with 1:1 binding between SOS1 and the compound.

[1] = biological target: SOS1:KRAS (G12C) interaction (Homo sapiens (Human), UniProt Q07889); assay: SOS1-KRas(G12C) FRET Assay; format: binding; settings: 0.5 nM His10-SOS1 (res. 564-1049), 2.5 nM GST-KRAS (res. 1-169, G12C); read-out: SOS-KRas(G12C) FRET IC50
In short: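 Compounds were pre-incubated 15 min at 25° C with SOS1 (His10, res. 564-1049; 0.5 nM final) and anti-6His-XL665, then GST-KRAS G12C (res. 1-169; 2.5 nM final) with anti-GST-Eu(K) was added for 2 h at RT. The buffer was PBS, 0.1% BSA, 5 mM MgCl2, 100 mM KF, 5 mM DTT with 0.5% DMSO. The 665/615 nm signal was normalised to DMSO and no-SOS1 controls, and IC50 and Hill coefficient were fitted by non-linear regression.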

human SOS1, sequence (Q07889 564-1049): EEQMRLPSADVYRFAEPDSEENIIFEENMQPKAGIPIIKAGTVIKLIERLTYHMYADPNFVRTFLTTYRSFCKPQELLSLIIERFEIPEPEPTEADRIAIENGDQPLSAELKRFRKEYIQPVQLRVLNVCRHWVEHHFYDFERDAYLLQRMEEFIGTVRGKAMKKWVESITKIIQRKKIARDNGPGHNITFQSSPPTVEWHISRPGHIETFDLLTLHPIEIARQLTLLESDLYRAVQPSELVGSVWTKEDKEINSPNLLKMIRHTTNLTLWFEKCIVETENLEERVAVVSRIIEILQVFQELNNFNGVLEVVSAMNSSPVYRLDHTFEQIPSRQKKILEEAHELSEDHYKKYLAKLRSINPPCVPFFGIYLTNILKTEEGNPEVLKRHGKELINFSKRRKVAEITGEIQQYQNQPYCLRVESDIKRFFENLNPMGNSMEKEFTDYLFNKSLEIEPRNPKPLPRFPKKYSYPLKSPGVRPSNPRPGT
SOS1:KRAS (G12C) interaction, sequence (Q07889 564-1049, stated change not applied): as the sequence (Q07889 564-1049) above

## COc1c(=O)n(C2CCOCC2)cc2c(N[C@H](C)c3cccc(C(F)(F)C(C)(C)O)c3F)nn(C)c(=O)c12 [Example 41, (R)-4-((1-(3-(1,1-difluoro-2-hydroxy-2-methylpropyl)-2-fluorophenyl)ethyl)amino)-8-methoxy-2-methyl-6-(tetrahydro-2H-pyran-4-yl)-2,6-dihydropyrido[3,4-d]pyridazine-1,7-dione]
Human SOS1
  pKd: 7.85
[1]
  pIC50: 7.55

## C[C@@H](Nc1nn(C)c(=O)c2cc(=O)n([C@H]3CCOC[C@@H]3F)cc12)c1cccc(C(F)F)c1F (single isomer, unassigned) [Example 30]
Human SOS1
  pKd: 8.05
[1]
  pIC50: 7.68

## C[C@@H](Nc1nn(C)c(=O)c2cc(=O)n([C@@]3(C)CCOC3)cc12)c1cccc(C(F)F)c1F (single isomer, unassigned) [Example 52]
Human SOS1
  pKd: 7.12
[1]
  pIC50: 6.57

## C[C@@H](Nc1nn(C)c(=O)c2cc(=O)n(C34CC(N5CCOCC5)(C3)C4)cc12)c1cccc(C(F)F)c1F [Example 50, (R)-4-((1-(3-(difluoromethyl)-2-fluorophenyl)ethyl)amino)-2-methyl-6-(3-morpholinobicyclo[1.1.1]pentan-1-yl)-2,6-dihydropyrido[3,4-d]pyridazine-1,7-dione]
Human SOS1
  pKd: 7.54
[1]
  pIC50: 7.26

## Cc1c([C@@H](C)Nc2nn(CCN)c(=O)c3cc(=O)n(C4CC4)cc23)cccc1C(F)(F)F [Example 24, (R)-2-(2-aminoethyl)-6-cyclopropyl-4-((1-(2-methyl-3-(trifluoromethyl)phenyl)ethyl)amino)-2,6-dihydropyrido[3,4-d]pyridazine-1,7-dione]
Human SOS1
  pKd: 7.47
[1]
  pIC50: 6.62

## COc1c(=O)n([C@@H]2CCOC[C@H]2F)cc2c(N[C@H](C)c3cccc(C(F)F)c3F)nn(C)c(=O)c12 (single isomer, unassigned) [Example 61]
Human SOS1
  pKd: 8.00
[1]
  pIC50: 7.59

## C[C@@H](Nc1nn(C)c(=O)c2cc(=O)n([C@@H]3CCOC[C@@H]3F)cc12)c1cccc(C(F)F)c1F (single isomer, unassigned) [Example 32]
Human SOS1
  pKd: 6.64
[1]
  pIC50: 5.98

## Cc1c([C@@H](C)Nc2nn(C)c(=O)c3c(N)c(=O)n(C4CC4)cc23)cccc1C(F)(F)F [Example 12, (R)-8-amino-6-cyclopropyl-2-methyl-4-((1-(2-methyl-3-(trifluoromethyl)phenyl)ethyl)amino)-2,6-dihydropyrido[3,4-d]pyridazine-1,7-dione]
Human SOS1
  pKd: 6.54
[1]
  pIC50: 5.88

## C[C@@H](Nc1nn(C)c(=O)c2cc(=O)n(C3CC3)cc12)c1cccc(C(F)F)c1F [Example 17, (R)-6-cyclopropyl-4-((1-(3-(difluoromethyl)-2-fluorophenyl)ethyl)amino)-2-methyl-2,6-dihydropyrido[3,4-d]pyridazine-1,7-dione]
Human SOS1
  pKd: 7.51
[1]
  pIC50: 6.61

## C[C@@H](Nc1nn(C)c(=O)c2cc(=O)n(C3CCOCC3)cc12)c1cccc2c(F)coc12 [Example 46, (R)-4-((1-(3-fluorobenzofuran-7-yl)ethyl)amino)-2-methyl-6-(tetrahydro-2H-pyran-4-yl)-2,6-dihydropyrido[3,4-d]pyridazine-1,7-dione]
Human SOS1
  pKd: 7.68
[1]
  pIC50: 7.20

## C[C@@H](Nc1nn(C)c(=O)c2cc(=O)n(C34CC(C(=O)N(C)C)(C3)C4)cc12)c1cccc(C(F)F)c1F [Example 69, (R)-3-(4-((1-(3-(difluoromethyl)-2-fluorophenyl)ethyl)amino)-2-methyl-1,7-dioxo-1,7-dihydropyrido[3,4-d]pyridazin-6(2H)-yl)-N,N-dimethylbicyclo[1.1.1]pentane-1-carboxamide]
Human SOS1
  pKd: 8.00
[1]
  pIC50: 7.46

## CCOc1c(=O)n(C2CC2)cc2c(N[C@H](C)c3cccc(C(F)(F)F)c3C)nn(C)c(=O)c12 [Example 19, (R)-6-cyclopropyl-8-ethoxy-2-methyl-4-((1-(2-methyl-3-(trifluoromethyl)phenyl)ethyl)amino)-2,6-dihydropyrido[3,4-d]pyridazine-1,7-dione]
Human SOS1
  pKd: 6.79
[1]
  pIC50: 6.09

## COC1(C)CN(CCn2nc(N[C@H](C)c3cccc(C(F)(F)F)c3C)c3cn(C4CC4)c(=O)cc3c2=O)C1 [Example 78, (R)-6-cyclopropyl-2-(2-(3-methoxy-3-methylazetidin-1-yl)ethyl)-4-((1-(2-methyl-3-(trifluoromethyl)phenyl)ethyl)amino)-2,6-dihydropyrido[3,4-d]pyridazine-1,7-dione]
Human SOS1
  pKd: 7.26
[1]
  pIC50: 7.05

## C[C@H](Nc1nn(C)c(=O)c2cc(=O)n(C3CCOCC3)cc12)c1cccc(C(F)(F)[C@@H]2CCCO2)c1F (single isomer, unassigned) [Example 44]
Human SOS1
  pKd: < 5.30
[1]
  pIC50: 5.24

## COc1c(=O)n(C2CC2)cc2c(N[C@H](C)c3cccc(C(F)(F)F)c3C)nn(C)c(=O)c12 [Example 6, (R)-6-cyclopropyl-8-methoxy-2-methyl-4-((1-(2-methyl-3-(trifluoromethyl)phenyl)ethyl)amino)-2,6-dihydropyrido[3,4-d]pyridazine-1,7-dione]
Human SOS1
  pKd: 7.36
[1]
  pIC50: 6.79

## C[C@@H](Nc1nn(C)c(=O)c2cc(=O)n(C3CC(C#N)C3)cc12)c1cccc(C(F)F)c1F (stereo partly drawn) [Example 76, (1r,3s)-3-(4-(((R)-1-(3-(difluoromethyl)-2-fluorophenyl)ethyl)amino)-2-methyl-1,7-dioxo-1,7-dihydropyrido[3,4-d]pyridazin-6(2H)-yl)cyclobutane-1-carbonitrile]
Human SOS1
  pKd: 7.43
[1]
  pIC50: 7.03

## Cc1c([C@@H](C)Nc2nn(C)c(=O)c3c(C)c(=O)n(C4CC4)cc23)cccc1C(F)(F)F [Example 7, (R)-6-cyclopropyl-2,8-dimethyl-4-((1-(2-methyl-3-(trifluoromethyl)phenyl)ethyl)amino)-2,6-dihydropyrido[3,4-d]pyridazine-1,7-dione]
Human SOS1
  pKd: 6.59
[1]
  pIC50: 5.98

## Cc1c([C@@H](C)Nc2nn(C)c(=O)c3c([C@H]4CCCN4)c(=O)n(C4CC4)cc23)cccc1C(F)(F)F [Example 35, 6-cyclopropyl-2-methyl-4-(((R)-1-(2-methyl-3-(trifluoromethyl)phenyl)ethyl)amino)-8-((R)-pyrrolidin-2-yl)-2,6-dihydropyrido[3,4-d]pyridazine-1,7-dione]
Human SOS1
  pKd: 7.77
[1]
  pIC50: 7.11

## Cc1c([C@@H](C)Nc2nn(C)c(=O)c3c(Cl)c(=O)n(C4CC4)cc23)cccc1C(F)(F)F [Example 11, (R)-8-chloro-6-cyclopropyl-2-methyl-4-((1-(2-methyl-3-(trifluoromethyl)phenyl)ethyl)amino)-2,6-dihydropyrido[3,4-d]pyridazine-1,7-dione]
Human SOS1
  pKd: 7.02
[1]
  pIC50: 6.23

## Cc1c(=O)n(C2(C(F)F)CC2)cc2c(N[C@H](C)c3cccc(C(F)F)c3F)nn(C)c(=O)c12 [Example 74, (R)-4-((1-(3-(difluoromethyl)-2-fluorophenyl)ethyl)amino)-6-(1-(difluoromethyl)cyclopropyl)-2,8-dimethyl-2,6-dihydropyrido[3,4-d]pyridazine-1,7-dione]
Human SOS1
  pKd: 7.16
[1]
  pIC50: 7.04

## Cc1c([C@@H](C)Nc2nn(C)c(=O)c3cc(=O)n([C@@]4(C)CCOC4)cc23)cccc1C(F)(F)F (single isomer, unassigned) [Example 54]
Human SOS1
  pKd: 6.90
[1]
  pIC50: 6.55

## Cc1c([C@@H](C)Nc2nn(C)c(=O)c3c(N4CC[C@H](N)C4)c(=O)n(C4CC4)cc23)cccc1C(F)(F)F [Example 21, 8-((S)-3-aminopyrrolidin-1-yl)-6-cyclopropyl-2-methyl-4-(((R)-1-(2-methyl-3-(trifluoromethyl)phenyl)ethyl)amino)-2,6-dihydropyrido[3,4-d]pyridazine-1,7-dione]
Human SOS1
  pKd: 7.15
[1]
  pIC50: 6.52

## C[C@@H](Nc1nn(C)c(=O)c2cc(=O)n([C@@H]3CCOC[C@H]3F)cc12)c1cccc(C(F)F)c1F (single isomer, unassigned) [Example 31]
Human SOS1
  pKd: 7.35
[1]
  pIC50: 6.84

## Cc1c([C@@H](C)Nc2nn(C)c(=O)c3cc(=O)n([C@]4(C)CCOC4)cc23)cccc1C(F)(F)F (single isomer, unassigned) [Example 55]
Human SOS1
  pKd: 7.85
[1]
  pIC50: 7.49

## C[C@@H](Nc1nn(C)c(=O)c2cc(=O)n(C3(C(F)F)CC3)cc12)c1cccc(C(F)(F)C(C)(C)O)c1F [Example 70, (R)-4-((1-(3-(1,1-difluoro-2-hydroxy-2-methylpropyl)-2-fluorophenyl)ethyl)amino)-6-(1-(difluoromethyl)cyclopropyl)-2-methyl-2,6-dihydropyrido[3,4-d]pyridazine-1,7-dione]
Human SOS1
  pKd: 7.92
[1]
  pIC50: 7.78
